In PubChem BioAssay (NCI):
“And” between values parts separate entries of the source, which are not always exact repeats. Equal entries are not always repeated.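 Results reflect a 48-hour exposure of cells in 96-well plates to compound at five concentrations. GI50: concentration for 50% inhibition of growth. The concentration for full growth arrest is given as TGI.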

Experiments:
Assay in all cases: growth of human tumour cells (NCI), 48 h
HOP-92 NSCLC = test system: HOP-92 NSCLC
K-562 leukemia = test system: K-562 leukemia
KM12 colon = test system: KM12 colon
LOX IMVI melanoma = test system: LOX IMVI melanoma
MALME-3M melanoma = test system: MALME-3M melanoma
NCI-H23 lung = test system: NCI-H23 lung
NCI-H460 lung = test system: NCI-H460 lung
SW-620 colon = test system: SW-620 colon
U251 CNS = test system: U251 CNS
CCRF-CEM leukemia = test system: CCRF-CEM leukemia

Structure (SMILES)	TGI (HOP-92 NSCLC)	TGI (K-562 leukemia)	TGI (KM12 colon)	TGI (LOX IMVI melanoma)	TGI (MALME-3M melanoma)	TGI (NCI-H23 lung)	TGI (NCI-H460 lung)	TGI (SW-620 colon)	TGI (U251 CNS)	GI50 (CCRF-CEM leukemia)	TGI (CCRF-CEM leukemia)	GI50 (K-562 leukemia)	GI50 (KM12 colon)	GI50 (LOX IMVI melanoma)	GI50 (NCI-H23 lung)	GI50 (NCI-H460 lung)	GI50 (SW-620 colon)	GI50 (U251 CNS)	GI50 (HOP-92 NSCLC)	GI50 (MALME-3M melanoma)
COc1nc2nccc-2c2occn12	> 100 µM	> 100 µM	> 100 µM	> 100 µM	> 100 µM	> 100 µM	> 100 µM	> 100 µM	> 100 µM											
COc1c(N2CCN(CN3C(=O)C(=Nc4ccc(S(=O)(=O)Nc5ncccn5)cc4)c4ccccc43)C(C)C2)c(F)cc2c(=O)c(C(=O)O)cn(C3CC3)c12 (configuration not stated)		> 50 µM	> 50 µM	> 50 µM		> 50 µM	> 50 µM	39.4 µM	> 50 µM	44.4 µM	> 50 µM	11.9 µM	40.8 µM	27.5 µM	19.8 µM	22.4 µM	10.8 µM	> 50 µM		
CC(=O)c1cc([N+](=O)[O-])ccc1OCC(=O)O	> 100 µM	> 100 µM	> 100 µM	> 100 µM	> 100 µM	> 100 µM	> 100 µM	> 100 µM	> 100 µM		> 100 µM									
CN=S(=O)(c1ccccc1)c1ccccc1	> 100 µM	> 100 µM	> 100 µM	> 100 µM	> 100 µM	> 100 µM	> 100 µM	> 100 µM	> 100 µM		> 100 µM									
CC1C(=O)C(C)C(c2ccccc2)N(N=O)C1c1ccccc1 (configuration not stated)	78.4 µM and 264 µM	> 1000 µM	> 684 µM	> 783 µM	> 516 µM	> 779 µM	> 1000 µM	> 1000 µM	> 92.4 µM and 397 µM		> 1000 µM				332 µM		> 1000 µM	131 µM	107 µM	
O=NNc1nc(-c2cccnc2)nc2ccccc12		> 100 µM	> 100 µM			> 100 µM	> 100 µM	> 100 µM	> 100 µM		> 100 µM									
Fc1cccc(COc2ccc(Nc3ncnc4cc(-c5ccc[nH]5)sc34)cc2Cl)c1	2.39 µM	> 25 µM	5.54 µM	> 22.4 µM	14.6 µM	> 25 µM	> 15.3 µM	> 25 µM	17.5 µM	0.44 µM	> 25 µM	10.7 µM	0.156 µM	8.04 µM	7.22 µM	2.09 µM	8.56 µM	3.51 µM	0.31 µM	2.65 µM
Cc1cccc(C(C)C)c1NC(=O)C(=O)CC(=O)c1c(C)n([O-])c2ccccc2[n+]1=O	> 100 µM	> 100 µM	> 100 µM	> 100 µM	44.1 µM	51.3 µM	60 µM	> 100 µM	95.9 µM		99.7 µM									
COc1cc(-c2cn(-c3ccc(Cl)cc3)c(C)c2C(=O)C(F)(F)F)cc(OC)c1OC	56 µM	> 100 µM	> 100 µM	> 100 µM	> 100 µM	> 100 µM	> 100 µM	> 100 µM	> 100 µM	16.1 µM	> 100 µM	22.7 µM	> 100 µM	> 100 µM	60.5 µM	33.4 µM	> 100 µM	> 100 µM	2.27 µM	> 100 µM
CC(C)C1CC(O)O[C@@H]([C@@H](C)[C@H]2CC(=O)[C@@H]3[C@@H]4[C@@H](O)[C@H](O)[C@H]5[C@@H](O)[C@H](O)CC[C@]5(C)[C@H]4CC[C@]23C)C1 (some centres not stated)	57.1 µM	> 100 µM	> 100 µM	> 100 µM	> 100 µM	> 100 µM	> 100 µM	> 100 µM	> 100 µM		> 100 µM									
COc1ccc(-c2cncn2-c2ccc(OC)cc2)cc1	84.8 µM	36.9 µM	29 µM	> 100 µM		48.3 µM	48.4 µM	> 100 µM	> 100 µM			10.8 µM	10.2 µM	29.6 µM	19.1 µM	15.6 µM	26.1 µM	25.3 µM	23 µM	
O=c1cc(-c2ccccc2)c2cc3c(=O)ccoc3cc2o1		> 100 µM		> 100 µM	> 100 µM	> 100 µM	> 100 µM	> 100 µM	> 100 µM		> 100 µM									
COc1cc(CNc2ccc(C(C)C)cc2)cc(OC)c1OC	50.2 µM	41.7 µM	34.9 µM	29.9 µM	45.6 µM	45.5 µM	26.5 µM		29.7 µM		50.5 µM									
CC1=C(O)C(=O)C2C(=O)C1C(C)C2c1ccc(Cl)cc1 (configuration not stated)	> 100 µM	> 100 µM	> 100 µM	> 100 µM	> 100 µM	> 100 µM		> 100 µM	> 100 µM		> 100 µM									
CC/C=C\C/C=C\C/C=C\CCCCCCCC(=O)OCC	> 100 µM	> 100 µM	> 100 µM	> 100 µM	> 100 µM	> 100 µM		> 100 µM	> 100 µM		> 100 µM									
C=C(C)C(=O)O[C@H]1[C@H]2[C@H](OC(=O)[C@H]2C)[C@H](O)[C@@H](C)[C@@H]2C=CC(=O)[C@]21C	8.89 µM		7.38 µM	7.74 µM	5.54 µM	15 µM	3.72 µM	10.7 µM	12.1 µM		7.53 µM									
C=C1CC[C@@H]2[C@](C)(COC(C)=O)[C@H](OC(C)=O)CC[C@@]2(C)[C@@H]1CC(Nc1ccc(S(=O)(=O)Nc2nccc(C)n2)cc1)C1=CCOC1=O (some centres not stated)	18.9 µM	21.7 µM	16.4 µM	3.24 µM		16 µM	18.3 µM	3.68 µM	10.7 µM	0.073 µM	3.09 µM	2.97 µM	4.59 µM	1.53 µM	3.78 µM	4.88 µM	1.6 µM	3.17 µM	6.24 µM	
Fc1ccc2[nH]c3c(NCCCN4CCOCC4)ncnc3c2c1	84.1 µM	> 100 µM	> 100 µM	> 100 µM	89.1 µM	> 100 µM	> 100 µM	> 100 µM	> 100 µM			26.2 µM	48.8 µM	30.7 µM	51.4 µM	38.5 µM	40.8 µM	48.8 µM	13.5 µM	27.4 µM
